Assay results from ChEMBL document CHEMBL1141761, “Constituents of the pericarp of Garcinia subelliptica” (J Nat Prod, 2005).
Converted amounts (≈) assume the structure as drawn. The source made the active and inactive calls. No cut-off for these calls is given here.

Legend:
HT-29 = assay: Cytotoxicity against human HT-29 cells by MTT assay; assay type: functional, cell-based
[1] = (§1) Cytotoxicity against human Hep3B cells by MTT assay; assay type: functional, cell-based, Hep 3B2
MCF7 = assay: Cytotoxicity against human MCF7 cells by MTT assay; assay type: functional, cell-based
Hep 3B2 = assay: as §1; assay type: functional, cell-based

| Structure (SMILES) | IC60 (HT-29) | IC50 [1] | IC50 (MCF7) | Activity (HT-29) | Activity (Hep 3B2) | Activity (MCF7) | IC50 (HT-29) |
| --- | --- | --- | --- | --- | --- | --- | --- |
| O=c1[nH]cc(F)c(=O)[nH]1 [FLUOROURACIL] | 0.074 µg/mL (≈ 0.569 µM) | 0.072 µg/mL (≈ 0.554 µM) | 0.0012 µg/mL (≈ 0.00923 µM) |  |  |  |  |
| C=C(C)CC[C@@H](CC=C(C)C)[C@@H](C(=C)C)[C@](C)(CC=C(C)C)C(=O)c1cccc(O)c1 |  |  |  | inactive | inactive | inactive |  |
| C=C(C)CC[C@@H](C[C@@H]1C[C@]2(CC=C(C)C)C(=O)[C@@](C(=O)c3ccc(O)c(O)c3)(C(=O)C3=C2O[C@@H](C(C)(C)O)C3)C1(C)C)C(=C)C [GARCINIELLIPTONE FB] |  | 6.3 µg/mL (≈ 10.2 µM) | 6.8 µg/mL (≈ 11 µM) |  |  |  | 11.2 µg/mL (≈ 18.1 µM) |
